Data as given in ChEMBL document CHEMBL3132769, “Fragment growing to retain or alter the selectivity of anchored kinase hinge-binding fragments” (Medchemcomm, 2014).

What was measured:
[1] = molecular target: T1, Serine/threonine-protein kinase D1 (Homo sapiens) (UniProt Q15139); test: Inhibition of human full length PKD1 expressed in baculovirus assessed as substrate phosphorylation using fluorescence-labelled peptides as substrate at 9 uM after 90 mins by microfluidic peptide phosphorylation assay
T1 sequence (whole entry): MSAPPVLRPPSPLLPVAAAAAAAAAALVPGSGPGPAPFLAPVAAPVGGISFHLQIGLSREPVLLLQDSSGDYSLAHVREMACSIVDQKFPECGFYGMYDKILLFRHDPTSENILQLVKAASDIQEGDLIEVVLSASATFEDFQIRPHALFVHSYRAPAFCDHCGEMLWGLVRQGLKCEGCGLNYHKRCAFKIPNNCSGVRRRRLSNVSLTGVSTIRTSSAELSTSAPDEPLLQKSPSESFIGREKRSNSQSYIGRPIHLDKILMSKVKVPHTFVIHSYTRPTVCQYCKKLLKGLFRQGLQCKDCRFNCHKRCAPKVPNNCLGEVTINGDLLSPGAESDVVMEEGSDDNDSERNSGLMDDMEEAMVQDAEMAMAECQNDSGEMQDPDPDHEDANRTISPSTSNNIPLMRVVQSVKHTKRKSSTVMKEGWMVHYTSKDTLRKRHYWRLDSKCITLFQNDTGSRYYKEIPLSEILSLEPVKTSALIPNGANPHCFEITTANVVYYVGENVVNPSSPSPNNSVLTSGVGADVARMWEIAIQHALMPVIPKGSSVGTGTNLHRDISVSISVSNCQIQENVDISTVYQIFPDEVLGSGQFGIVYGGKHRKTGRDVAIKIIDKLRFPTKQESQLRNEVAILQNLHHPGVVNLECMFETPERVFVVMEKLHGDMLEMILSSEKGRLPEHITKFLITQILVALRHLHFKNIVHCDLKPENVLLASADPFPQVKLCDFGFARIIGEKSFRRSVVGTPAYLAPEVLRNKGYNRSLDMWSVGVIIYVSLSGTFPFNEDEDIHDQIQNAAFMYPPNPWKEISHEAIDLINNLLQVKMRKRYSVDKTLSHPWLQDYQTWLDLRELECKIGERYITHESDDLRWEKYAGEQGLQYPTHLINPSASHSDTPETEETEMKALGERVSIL

[2] = molecular target: Protein kinase C beta type (Homo sapiens) (UniProt P05771); test: Inhibition of human full length PKC beta2 expressed in baculovirus assessed as substrate phosphorylation using fluorescence-labelled peptides as substrate at 95 uM after 90 mins by microfluidic peptide phosphorylation assay
[3] = molecular target: Dual specificity tyrosine-phosphorylation-regulated kinase 1A (Rattus norvegicus) (UniProt Q63470); test: Inhibition of rat full length DYRK1a expressed in Escherichia coli cell assessed as substrate phosphorylation using fluorescence-labelled peptides as substrate at 95 uM after 90 mins by microfluidic peptide phosphorylation assay
[4] = molecular target: Receptor-type tyrosine-protein kinase FLT3 (Homo sapiens) (UniProt P36888); test: Inhibition of human FLT3 catalytic domain expressed in baculovirus assessed as substrate phosphorylation using fluorescence-labelled peptides as substrate at 0.1 uM after 90 mins by microfluidic peptide phosphorylation assay
[5] = molecular target: Serine/threonine-protein kinase PAK 2 (Homo sapiens) (UniProt Q13177); test: Inhibition of human truncated PAK2 expressed in Escherichia coli cell assessed as substrate phosphorylation using fluorescence-labelled peptides as substrate at 420 uM after 90 mins by microfluidic peptide phosphorylation assay
[6] = molecular target: T2, Serine/threonine-protein kinase Nek2 (Homo sapiens) (UniProt P51955); test: Inhibition of human full length NEK2 expressed in baculovirus assessed as substrate phosphorylation using fluorescence-labelled peptides as substrate at 420 uM after 90 mins by microfluidic peptide phosphorylation assay
T2 sequence (whole entry): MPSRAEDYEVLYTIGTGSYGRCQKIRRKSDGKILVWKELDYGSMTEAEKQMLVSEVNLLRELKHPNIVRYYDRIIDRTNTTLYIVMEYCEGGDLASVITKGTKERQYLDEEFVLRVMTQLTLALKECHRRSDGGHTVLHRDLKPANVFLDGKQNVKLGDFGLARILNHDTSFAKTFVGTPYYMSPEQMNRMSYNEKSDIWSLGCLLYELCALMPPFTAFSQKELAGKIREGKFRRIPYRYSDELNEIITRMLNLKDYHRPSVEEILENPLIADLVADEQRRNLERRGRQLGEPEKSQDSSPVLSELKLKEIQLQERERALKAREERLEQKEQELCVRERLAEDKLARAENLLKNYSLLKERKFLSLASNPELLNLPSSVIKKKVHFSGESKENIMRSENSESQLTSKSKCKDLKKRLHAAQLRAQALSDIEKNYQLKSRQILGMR

[7] = molecular target: Mitogen-activated protein kinase 14 (Homo sapiens) (UniProt Q16539); test: Inhibition of human truncated p38 alpha expressed in Escherichia coli cell assessed as substrate phosphorylation using fluorescence-labelled peptides as substrate at 70 uM after 90 mins by microfluidic peptide phosphorylation assay
[8] = molecular target: Fibroblast growth factor receptor 1 (Homo sapiens) (UniProt P11362); test: Inhibition of human FGFR1 catalytic domain expressed in baculovirus assessed as substrate phosphorylation using fluorescence-labelled peptides as substrate at 0.2 uM after 90 mins by microfluidic peptide phosphorylation assay
[9] = molecular target: Receptor-type tyrosine-protein kinase FLT3 (Homo sapiens) (UniProt P36888); test: Inhibition of human FLT3 catalytic domain expressed in baculovirus assessed as substrate phosphorylation using fluorescence-labelled peptides as substrate at 2 uM after 90 mins by microfluidic peptide phosphorylation assay
[10] = molecular target: Tyrosine-protein kinase Lyn (Homo sapiens) (UniProt P07948); test: Inhibition of human full length LYN expressed in baculovirus assessed as substrate phosphorylation using fluorescence-labelled peptides as substrate at 8 uM after 90 mins by microfluidic peptide phosphorylation assay
[11] = molecular target: T3, Protein kinase C zeta type (Homo sapiens) (UniProt Q05513); test: Inhibition of human full length PKC zeta expressed in baculovirus assessed as substrate phosphorylation using fluorescence-labelled peptides as substrate at 1000 uM after 90 mins by microfluidic peptide phosphorylation assay
T3 sequence (whole entry): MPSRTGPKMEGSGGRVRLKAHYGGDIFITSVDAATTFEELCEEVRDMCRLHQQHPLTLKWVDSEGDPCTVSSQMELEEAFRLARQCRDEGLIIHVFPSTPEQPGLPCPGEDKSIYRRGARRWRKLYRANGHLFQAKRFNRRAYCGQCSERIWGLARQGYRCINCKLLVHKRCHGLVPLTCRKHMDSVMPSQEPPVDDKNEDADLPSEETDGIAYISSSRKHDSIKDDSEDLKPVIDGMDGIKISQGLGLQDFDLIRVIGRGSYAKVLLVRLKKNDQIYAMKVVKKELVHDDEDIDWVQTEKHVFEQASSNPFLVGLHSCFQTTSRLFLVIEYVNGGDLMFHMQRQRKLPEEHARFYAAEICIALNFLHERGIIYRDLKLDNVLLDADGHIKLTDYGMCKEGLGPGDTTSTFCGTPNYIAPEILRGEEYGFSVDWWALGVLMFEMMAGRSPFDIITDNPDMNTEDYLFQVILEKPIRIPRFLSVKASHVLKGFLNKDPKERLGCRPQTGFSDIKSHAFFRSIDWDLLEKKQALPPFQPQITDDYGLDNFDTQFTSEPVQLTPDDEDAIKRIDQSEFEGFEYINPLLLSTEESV

Chain of Receptor-type tyrosine-protein kinase FLT3 (Homo sapiens) (P36888 whole entry, the tested form may be a part): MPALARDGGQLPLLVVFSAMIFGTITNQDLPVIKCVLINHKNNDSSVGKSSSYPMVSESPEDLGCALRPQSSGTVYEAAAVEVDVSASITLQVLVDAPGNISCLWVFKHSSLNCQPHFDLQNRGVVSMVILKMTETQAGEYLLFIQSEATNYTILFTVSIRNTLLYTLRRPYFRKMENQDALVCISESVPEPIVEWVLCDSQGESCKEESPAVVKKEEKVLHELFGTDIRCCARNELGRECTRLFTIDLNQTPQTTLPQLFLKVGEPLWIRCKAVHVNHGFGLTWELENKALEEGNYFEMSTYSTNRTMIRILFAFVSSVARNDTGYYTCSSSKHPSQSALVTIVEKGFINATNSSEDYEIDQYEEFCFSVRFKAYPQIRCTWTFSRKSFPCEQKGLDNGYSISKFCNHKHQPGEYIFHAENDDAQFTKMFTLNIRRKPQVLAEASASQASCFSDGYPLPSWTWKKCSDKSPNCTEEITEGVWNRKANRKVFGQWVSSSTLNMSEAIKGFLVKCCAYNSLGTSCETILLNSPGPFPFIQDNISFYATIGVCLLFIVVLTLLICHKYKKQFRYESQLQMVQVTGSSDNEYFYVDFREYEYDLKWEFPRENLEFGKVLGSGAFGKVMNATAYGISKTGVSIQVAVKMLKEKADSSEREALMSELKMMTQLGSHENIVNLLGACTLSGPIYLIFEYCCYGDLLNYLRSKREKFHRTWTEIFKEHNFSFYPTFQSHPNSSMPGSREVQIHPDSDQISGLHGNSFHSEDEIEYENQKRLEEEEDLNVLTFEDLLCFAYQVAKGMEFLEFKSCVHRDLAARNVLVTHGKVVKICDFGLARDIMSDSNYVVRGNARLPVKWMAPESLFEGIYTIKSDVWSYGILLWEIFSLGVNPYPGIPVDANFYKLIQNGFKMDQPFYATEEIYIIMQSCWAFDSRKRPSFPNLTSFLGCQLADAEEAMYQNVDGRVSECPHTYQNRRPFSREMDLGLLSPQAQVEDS
Chain of Tyrosine-protein kinase Lyn (Homo sapiens) (P07948 2-512 limits assumed): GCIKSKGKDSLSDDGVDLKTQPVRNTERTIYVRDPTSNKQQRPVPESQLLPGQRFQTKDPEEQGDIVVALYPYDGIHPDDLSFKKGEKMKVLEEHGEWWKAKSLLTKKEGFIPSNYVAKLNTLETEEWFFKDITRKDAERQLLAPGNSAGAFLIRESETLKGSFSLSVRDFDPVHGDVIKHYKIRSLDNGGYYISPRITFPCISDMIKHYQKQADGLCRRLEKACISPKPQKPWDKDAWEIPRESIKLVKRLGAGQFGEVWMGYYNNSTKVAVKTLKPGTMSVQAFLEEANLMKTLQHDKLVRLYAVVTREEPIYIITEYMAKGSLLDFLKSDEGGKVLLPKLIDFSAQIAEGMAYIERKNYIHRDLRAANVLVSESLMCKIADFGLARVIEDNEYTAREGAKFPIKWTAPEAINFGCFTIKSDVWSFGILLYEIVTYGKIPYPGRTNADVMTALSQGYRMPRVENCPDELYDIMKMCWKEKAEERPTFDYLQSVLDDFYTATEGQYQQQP
Chain of Fibroblast growth factor receptor 1 (Homo sapiens) (P11362 22-822 limits assumed): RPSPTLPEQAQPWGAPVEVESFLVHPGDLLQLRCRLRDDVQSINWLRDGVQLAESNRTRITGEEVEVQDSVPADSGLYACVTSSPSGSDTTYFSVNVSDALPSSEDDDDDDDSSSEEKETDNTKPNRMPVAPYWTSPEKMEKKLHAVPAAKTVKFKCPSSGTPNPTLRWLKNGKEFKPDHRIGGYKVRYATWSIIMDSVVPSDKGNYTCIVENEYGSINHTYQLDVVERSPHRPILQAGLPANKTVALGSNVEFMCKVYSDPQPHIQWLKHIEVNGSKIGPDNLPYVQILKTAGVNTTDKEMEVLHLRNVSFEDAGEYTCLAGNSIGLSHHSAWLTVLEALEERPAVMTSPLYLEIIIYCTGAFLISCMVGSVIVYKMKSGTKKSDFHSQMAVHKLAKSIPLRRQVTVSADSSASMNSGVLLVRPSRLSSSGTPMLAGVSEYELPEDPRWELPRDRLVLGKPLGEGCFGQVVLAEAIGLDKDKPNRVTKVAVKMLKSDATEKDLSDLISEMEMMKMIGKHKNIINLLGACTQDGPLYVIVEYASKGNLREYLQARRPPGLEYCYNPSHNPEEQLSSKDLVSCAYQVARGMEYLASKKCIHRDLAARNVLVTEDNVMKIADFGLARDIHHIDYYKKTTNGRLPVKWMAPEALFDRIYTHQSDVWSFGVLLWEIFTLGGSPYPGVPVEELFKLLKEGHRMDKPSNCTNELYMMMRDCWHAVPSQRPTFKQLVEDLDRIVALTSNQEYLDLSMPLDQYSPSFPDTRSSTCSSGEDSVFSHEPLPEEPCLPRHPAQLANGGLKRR
Chain of Protein kinase C beta type (Homo sapiens) (P05771 2-671 limits assumed): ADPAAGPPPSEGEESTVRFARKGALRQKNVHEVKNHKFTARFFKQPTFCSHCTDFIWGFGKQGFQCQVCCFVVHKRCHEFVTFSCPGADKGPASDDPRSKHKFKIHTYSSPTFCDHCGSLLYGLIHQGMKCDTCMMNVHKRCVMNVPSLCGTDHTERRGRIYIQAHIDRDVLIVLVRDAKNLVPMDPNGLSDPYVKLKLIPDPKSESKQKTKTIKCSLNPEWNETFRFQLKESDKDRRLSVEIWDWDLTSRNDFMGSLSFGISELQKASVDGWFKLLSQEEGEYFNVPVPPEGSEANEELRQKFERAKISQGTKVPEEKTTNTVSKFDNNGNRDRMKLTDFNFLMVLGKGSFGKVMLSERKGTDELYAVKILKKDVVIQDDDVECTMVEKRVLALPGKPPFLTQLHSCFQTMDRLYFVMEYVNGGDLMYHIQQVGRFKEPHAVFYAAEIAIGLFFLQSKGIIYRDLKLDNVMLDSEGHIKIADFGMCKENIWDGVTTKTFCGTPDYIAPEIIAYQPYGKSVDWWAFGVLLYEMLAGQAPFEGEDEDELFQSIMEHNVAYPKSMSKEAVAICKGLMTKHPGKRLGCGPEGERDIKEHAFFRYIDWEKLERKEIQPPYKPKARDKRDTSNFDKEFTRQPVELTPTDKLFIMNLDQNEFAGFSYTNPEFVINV
Chain of Mitogen-activated protein kinase 14 (Homo sapiens) (Q16539 whole entry, the tested form may be a part): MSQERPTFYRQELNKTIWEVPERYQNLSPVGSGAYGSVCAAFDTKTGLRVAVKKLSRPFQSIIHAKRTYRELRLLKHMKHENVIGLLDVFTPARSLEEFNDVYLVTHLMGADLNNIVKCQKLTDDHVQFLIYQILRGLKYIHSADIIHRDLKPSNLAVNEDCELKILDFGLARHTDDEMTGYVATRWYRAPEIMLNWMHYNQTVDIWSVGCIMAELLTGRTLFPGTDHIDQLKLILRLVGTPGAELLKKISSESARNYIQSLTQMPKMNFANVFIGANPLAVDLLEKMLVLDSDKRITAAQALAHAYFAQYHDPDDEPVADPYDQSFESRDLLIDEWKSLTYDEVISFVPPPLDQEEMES
Chain of Serine/threonine-protein kinase PAK 2 (Homo sapiens) (Q13177 whole entry, the tested form may be a part): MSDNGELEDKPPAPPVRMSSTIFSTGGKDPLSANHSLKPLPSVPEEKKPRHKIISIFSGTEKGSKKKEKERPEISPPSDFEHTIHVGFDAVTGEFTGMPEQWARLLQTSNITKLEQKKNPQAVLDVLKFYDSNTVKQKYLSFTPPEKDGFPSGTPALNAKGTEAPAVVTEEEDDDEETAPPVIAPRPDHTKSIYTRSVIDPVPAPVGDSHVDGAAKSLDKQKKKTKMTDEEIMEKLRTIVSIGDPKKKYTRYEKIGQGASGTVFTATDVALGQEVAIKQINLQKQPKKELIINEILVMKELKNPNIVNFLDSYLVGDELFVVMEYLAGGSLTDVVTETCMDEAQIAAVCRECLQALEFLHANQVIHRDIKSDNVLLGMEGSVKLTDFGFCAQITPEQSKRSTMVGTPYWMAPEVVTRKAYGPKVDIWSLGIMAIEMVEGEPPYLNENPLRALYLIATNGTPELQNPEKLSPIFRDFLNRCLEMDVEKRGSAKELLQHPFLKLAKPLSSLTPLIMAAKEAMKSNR

NCC1CN(c2ncnc3[nH]c4cnccc4c23)CCO1 (stereo unspecified)
inhibition [1]: 76%

NCCc1ccc(-c2ncnc3[nH]cnc23)cc1
inhibition [2]: 0%
inhibition [3]: 79%

C[C@H](CN(C)C)Oc1nc(Nc2cc3cccc(Cl)c3cn2)cnc1C#N
inhibition [4]: 7%

c1nc(N2CCOCC2)c2nc[nH]c2n1
inhibition [5]: 67.5%
inhibition [6]: 27%

CNCc1ccc(-c2ncnc3[nH]cnc23)cc1
inhibition [7]: 0%

Clc1ccc(C2(c3ccc(-c4ncnc5[nH]cnc45)cc3)CCNCC2)cc1
inhibition [8]: 13%

NC1CCN(c2ncnc3[nH]ccc23)CC1
inhibition [9]: 0%

NCC1CCN(c2ncnc3[nH]ccc23)CC1
inhibition [10]: 51%

c1cnc2[nH]ccc2c1
inhibition [11]: 31.5%
